Source: patent publication US11414378B2, “Anti-fungals compounds targeting the synthesis of fungal sphingolipids” (THE RESEARCH FOUNDATION FOR THE STATE UNIVERSITY OF NEW YORK, priority 2017, dated 2022)
Values after ≈ are worked out from the molar mass of the structure shown.

What was measured:
[1] = system: C. neoformans; test: In vitro susceptibility testing (MIC / IC80); assay type: cell-based, Cryptococcus neoformans; conditions: for IC80: Cryptococcus neoformans, Tables 1-3; for MIC: Example 2 table
Protocol: Minimal inhibitory concentration (MIC) was determined following the methods of the Clinical Laboratory Standards Institutes (CLSI) with modifications. MIC studies used either RPMI or YNB medium (pH 7.0, 0.2% glucose) buffered with HEPES. […] The compound was serially diluted from 32 to 0.03 μg/ml or 19 to 0.02 μg/ml respectively in a 96 well plate with the respective medium. The yeast inoculum was prepared as described in the CLSI protocol M27-A3 guidelines. Plates were incubated at 37° C. and in the presence of 5% CO2 for 24-96 hours. Against all fungal isolates used in the initial susceptibility screen, the MICs were determined as the lowest concentration of the drug that inhibited 50% of growth compared to the control. MIC80 and MIC100, whose drug concentrations inhibited 80% and 100% growth compared to the control respectively, were also determined. For antibacterial activity, E. coli DH5a and P. aeruginosa PA14 were grown overnight in Luria Bertani (LB) broth at 30° C. The cells were washed with PBS and counted. Then, 300 μL from 2×10^8 cells/mL was spreaded onto LB agar plate using a hockey stick glass spreader. The plate was dried, and wells were punched out using a cut tip. Fifty microliters of different drug concentration was added to the well. The plate was then incubated at 30° C. for 24 hours.

[2] = system: C. neoformans; test: In vitro killing assay (killing curve, Kapp, 48H killing); assay type: cell-based, Cryptococcus neoformans; conditions: for Kill characteristics: FIG. 1A / FIG. 1B; for Kapp*: Kapp = K0 − Ki (C − Ci), killing curve versus MIC
Protocol: From an overnight culture, C. neoformans cells were washed in PBS, resuspended in YNB buffered with HEPES at pH 7.4. Cells were counted and 2×10^4 cells were incubated with either 1, 2 or 4 μg/ml of compound in a final volume of 10 ml. Tubes were then incubated at 37° C. in the presence of 5% CO2 on a rotary shaker at 200 rpm. At the illustrated time points, aliquots were taken and diluted and 100 μL was plated onto yeast peptone dextrose (YPD) plates. YPD plates were incubated in a 30° C. incubator and, after 72 hours, colony forming units (CFU) were counted and recorded.

[3] = system: A549; test: A549 toxicity; assay type: cell-based
[4] = system: HepG2; test: HepG2 toxicity; assay type: cell-based; conditions: Tables 1-3
[5] = system: C. neoformans; test: In vitro susceptibility (MIC80) assay; assay type: cell-based; conditions: Cryptococcus neoformans; lowest concentration that inhibited 80% of growth; YNB pH 7.0, HEPES, 37° C., 5% CO2
Protocol: MICs was determined following the methods of the Clinical and Laboratory Standards Institutes (CLSI) with modifications. Yeast Nitrogen Base (YNB) medium (pH 7.0, 0.2% glucose) buffered with HEPES was used for MIC studies. […] The compound was serially diluted from 16 to 0.03 μg/ml, in a 96-well plate. The inoculum was prepared as described in the CLSI protocol M27A3 guidelines. The plates were incubated at 37° C. with 5% CO2 for 24 to 72 h and the optical density was measure at 450 nm. The MICs was determined as the lowest concentration of the compound that inhibited 80% of growth compared to the control.

[6] = system: C. neoformans cells; test: In vitro killing activity (K100) assay; assay type: cell-based, Cryptococcus neoformans; conditions: Cryptococcus neoformans; minimum concentration that kills 100% of C. neoformans cells in 48 h
Protocol: C. neoformans cells from a culture grown overnight were washed in PBS and resuspended in YNB buffered with HEPES at pH 7.4. The cells were counted, and 2×10^4 cells were incubated with different concentration of compounds in a final volume of 10 ml with a final concentration of 0.5% DMSO. The tubes were then incubated at 37° C. with 5% CO2 on a rotary shaker at 200 rpm. Aliquots were taken at time points and diluted, and […] were plated onto Yeast Extract-Peptone-Dextrose (YPD) plates. YPD plates were incubated in a 30° C. incubator and after 48 h, the numbers of CFU were counted and recorded.

[7] = system: C. neoformans; test: In vivo efficacy evaluation (survival study) in an animal model; design: species or system CBA/J mice; conditions: 20 mg/kg/day orally (gavage); mice infected intranasally with 5×10^5 C. neoformans cells
Protocol: For survival study, 4-week old CBA/J (Envigo) male mice were used. They were divided as ten mice for each treatment or control group. Mice were infected intranasally with 20 μl of a suspension containing 5×10^5 C. neoformans cells and subsequently treated orally with 20 mg/kg/day of compound A15 and fluconazole as drug control in a final volume of 100 μl of PEG30% in a saline buffer. The untreated control group mice received 100 μl of PEG30% in a saline buffer. Gavage was used as route of administration. At the end of the experiment, 80% of the mice treated with compound A15 survived whereas, only 30% of the mice treated with fluconazole survived. Mice were fed ad libitum and monitored every day for discomfort and meningitis signs. Mice showing weight loss, lethargy, tremor or inability to reach food or water were sacrificed and survival was counted until that day (see FIG. 2).

SMILES	IC80 [1] [µg/mL]	Killing assay 48H (μg/mL) [2]	A549 ([3]; Tables 1-3) [µg/mL]	HepG2 [4] [µg/mL]	MIC [1] [µg/mL]	Kapp* [2]	A549 ([3]; Example 2 table)	other results
O=C(N/N=C/c1ccc(Br)cc1O)c1ccc(Br)cc1	0.06 (≈ 0.151 µM)	Fungistatic	16	32	–	–	–	–
Cc1ccccc1C(=O)N/N=C/c1cc(Br)ccc1O [Compound 1]	–	–	–	–	1 (≈ 3 µM)	0.024	32	Kill characteristics [2]: killed C. neoformans in a concentration dependent manner
O=C(N/N=C/c1cc(Br)ccc1O)c1cccc(Br)c1 [Compound 2]	–	–	–	–	0.25 (≈ 0.628 µM)	−0.142	64	Kill characteristics [2]: killed C. neoformans in a time dependent manner
O=C(N/N=C/c1cc(Br)cc(Br)c1O)c1ccc(Br)cc1 [Compound 13]	–	–	–	–	0.06 (≈ 0.126 µM)	−0.428	>128	–
O=C(N/N=C/c1cc(Br)ccc1O)c1cc(Br)cc(Br)c1O [Compound 17]	–	–	–	–	0.5 (≈ 1.01 µM)	0.077	16	–
COCc1ccc(C(=O)N/N=C/c2cc(Br)cc(Br)c2O)cc1 [Compound A15, 4-Methoxymethyl-N′-(3,5-dibromo-2-hydroxybenzylidene)benzohydrazide]	–	–	–	–	–	–	–	MIC80 [5]: 0.007 µg/mL (≈ 0.0158 µM); MFC [6]: 0.03 µg/mL (≈ 0.0679 µM); mice survived at the end of the experiment [7]: 80%
[N-]=[N+]=Nc1ccc(C(=O)N/N=C/c2cc(Br)cc(Br)c2O)cc1 [Compound A45, 4-Azido-N′-(3,5-dibromo-2-hydroxybenzylidene)benzohydrazide]	–	–	–	–	–	–	–	MIC80 [5]: 0.06 µg/mL (≈ 0.137 µM); melting point: 193 to 197 °C
O=C(N/N=C/c1cc(Br)cc(Br)c1O)c1cnc2ccccc2c1 [drawing 62]	0.25 (≈ 0.557 µM)	Fungistatic	32	32	–	–	–	–
O=C(N/N=C/c1ccc(Br)cc1O)c1cc(Br)cc(Br)c1O [drawing 79]	0.06 (≈ 0.122 µM)	Fungistatic	32	32	–	–	–	–
OC(Cn1cncn1)(Cn1cncn1)c1ccc(F)cc1F [fluconazole, reference compound]	–	–	–	–	–	–	–	mice survived at the end of the experiment [7]: 30%
